Data from patent US9642869B2, “Boronic acid derivatives and therapeutic uses thereof” (Rempex Pharmaceuticals, Inc., priority 2013, dated 2017).
Read-outs that look alike come from different tables or passages of the source.

How the values were obtained:
[1] = Serum stability of prodrugs (hydrolysis by human serum); assay type: in vitro ADME; settings: 37° C.
Description: (§1) Prodrug strategy is one of the ways to achieve or increase oral bioavailability of therapeutic drugs. Compound 13 was used as template a for various ester prodrugs. After a prodrug molecule is absorbed into systemic circulation, the prodrug molecule can be hydrolyzed in the blood to release the active form. The hydrolysis of several prodrugs by rat and human serum were evaluated.
(§2) For all stability experiments the test compounds are treated with rat or human serum in Eppendorf tubes. One example of the testing procedures includes: 992 μl of serum was prewarmed at 37° C. for 2 minutes and then 8 μl of a compound (at 5 mg/ml, 125×) was added to get a final concentration of 40 μg/ml and immediately mixed. Alternatively, serum stability can be tested at 1 mg/ml. […] After vortexing for 30 seconds, the tube was centrifuged in a microcentrifuge for 10 minutes at 15K rpm. Next, 100 μl of the supernatant was combined with 600 μl of water and injected on LC-MS using 0.1% formic acid in water for mobile phase A and 0.1% formic acid in methanol for mobile phase B on an ACE 5 C18 2.1×100 mm column with a 10 μL injection. The flow rate and gradient are adjusted as needed to give the desired resolution and run time. The pH of the mobile phase is adjusted if needed to improve the chromatography.
(§3) The time course of both the disappearance of a prodrug and the appearance of the active form of that prodrug is presented in Table 9a and Table 9b.

[2] = Serum stability of prodrugs (hydrolysis by rat serum); assay type: in vitro ADME; settings: 37° C.
Description: as §1, §2, §3

ECL1002 [3] = test: Aztreonam potentiation (MPC@4); assay type: cell-based; settings: minimum BLI concentration inhibiting growth with 4 μg/mL aztreonam
CTX-M-15 KP1009 = assay type: cell-based
KPC-2 KP1004 = test: Aztreonam potentiation (MPC@4); assay type: cell-based; settings: minimum BLI concentration inhibiting growth with 4 μg/mL aztreonam
ECL1002 [4] = assay type: cell-based; settings: minimum BLI concentration inhibiting growth with tigemonam at 4 μg/mL
OXA-48 KP1086 = test: Biapenem potentiation (MPC@1); assay type: cell-based; settings: minimum BLI concentration inhibiting growth with 1 μg/mL biapenem
Description: (§4) Biapenem was present in the test medium at 1 μg/mL. […] Table 3 summarizes the BLI potency of biapenem potentiation (MPC@1) for two strains overexpressing class A (KPC) and class D (OXA-48) carbapenemases. Biapenem MIC for each strain is also shown.

KP1004 KPC-2 = test: Biapenem potentiation (MPC@1); assay type: cell-based; settings: minimum BLI concentration inhibiting growth with 1 μg/mL biapenem
Description: as §4

SHV-5 ec308 [5] = test: Aztreonam potentiation (MPC@4); assay type: cell-based; settings: minimum BLI concentration inhibiting growth with 4 μg/mL aztreonam
SHV-5 ec308 [6] = assay type: cell-based; settings: minimum BLI concentration inhibiting growth with tigemonam at 4 μg/mL
CTX-M-14 KP1005 = assay type: cell-based
[7] = Intravenous pharmacokinetics; assay type: in vivo; settings: rat, plasma; rats, IV infusion over 0.5 hours, dose 20 mg/kg; read-out: Free Cl (converted)
Description: Rats (n=3 per compound) were administered by a single infusion. IV doses were infused over 0.5 hours via an indwelling femoral vein cannula. Plasma (˜0.3 mL) samples were collected from each rat at designated time points up to 24 hours. Blood samples were centrifuged within 5 min of collection at 12000 g for 5 min to obtain plasma. The plasma samples were stored at −80° C. until analyzed. Data were analyzed using WinNonlin.

SHV-12 = SHV-12 (Klebsiella pneumoniae, UniProt P0AD64, E235K/G234S/L31Q); test: Inhibition of nitrocefin cleavage by purified enzyme (Ki); assay type: biochemical; settings: nitrocefin reporter substrate, 10 min preincubation; read-out: Ki (SHV-12, NCF)
Chain of SHV-12 (P0AD64 22-286 L31Q/G234S/E235K): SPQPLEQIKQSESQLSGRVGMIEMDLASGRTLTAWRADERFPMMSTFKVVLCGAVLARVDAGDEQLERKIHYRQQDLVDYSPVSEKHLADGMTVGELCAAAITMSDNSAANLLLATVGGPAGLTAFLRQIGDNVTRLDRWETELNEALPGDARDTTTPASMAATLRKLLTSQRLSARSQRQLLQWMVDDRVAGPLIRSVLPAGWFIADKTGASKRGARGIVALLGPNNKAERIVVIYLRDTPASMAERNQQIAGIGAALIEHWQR
Description: Purified enzymes were mixed with various concentrations of inhibitors in reaction buffer and incubated for 10 min at room temperature. Nitrocefin was added and substrate cleavage profiles were recorded at 490 nm every 10 sec for 10 min.

[8] = minimum BLI concentration inhibiting growth with tigemonam at 4 μg/mL

Compound | Measured Initial Conc. in Serum (prodrug) [1] [µg/mL] | Conc. at t = 2 hr (prodrug) [1] | Conc. at t = 4 hr (prodrug) [1] | Measured Initial Conc. in Serum (prodrug) [2] [µg/mL] | Conc. at t = 2 hr (prodrug) [2] [µg/mL] | Conc. at t = 4 hr (prodrug) [2] | AZT MPC4 ECL1002 (ECL1002 [3]) | TIG MPC4 CTX-M-15 KP1009 (CTX-M-15 KP1009) | AZT MPC4 KPC-2 KP1004 (KPC-2 KP1004) | TIG MPC4 ECL1002 (ECL1002 [4]) | BPM MPC1 OXA-48 KP1086 (OXA-48 KP1086) | BPM MPC1 KP1004 KPC-2 (KP1004 KPC-2) | AZT MPC4 SHV-5 ec308 (SHV-5 ec308 [5]) | TIG MPC4 SHV-5 ec308 (SHV-5 ec308 [6]) | TIG MPC4 CTX-M-14 KP1005 (CTX-M-14 KP1005) | clearance [7] [mL/min/kg] | Ki (SHV-12) [nM] | TIG MPC4 CTX-M-15 KP1009 (CTX-M-15 KP1009; [8]) | TIG MPC4 CTX-M-14 KP1005 (CTX-M-14 KP1005; [8])
CSCC(=O)N[C@H]1Cc2cccc(C(=O)OCOC(=O)C(C)(C)C)c2OB1O [Compound 23, (R)-pivaloyloxymethyl 2-hydroxy-3-(2-(methylthio)acetamido)-3,4-dihydro-2H-benzo[e][1,2]oxaborinine-8-carboxylate] | 1860 | 1350 µg/mL | 1000 µg/mL | 1780 | 1440 | 1100 µg/mL |  |  |  |  |  |  |  |  |  |  |  |  | 
CSCC(=O)N[C@H]1Cc2cccc(C(=O)OCOC(=O)OC(C)C)c2OB1O [Compound 24, (R)-(isopropoxycarbonyloxy)methyl 2-hydroxy-3-(2-(methylthio)acetamido)-3,4-dihydro-2H-benzo[e][1,2]oxaborinine-8-carboxylate] | 1790 | 550 µg/mL | 240 µg/mL | 1660 | 910 | 330 µg/mL |  |  |  |  |  |  |  |  |  |  |  |  | 
CCC(CC)C(=O)OCOC(=O)c1cccc2c1OB(O)[C@@H](NC(=O)CSC)C2 [Compound 26, (R)-(2-ethylbutanoyloxy)methyl 2-hydroxy-3-(2-(methylthio)acetamido)-3,4-dihydro-2H-benzo[e][1,2]oxaborinine-8-carboxylate] | 1520 | 920 µg/mL | 790 µg/mL | 1380 | 1150 | 1080 µg/mL |  |  |  |  |  |  |  |  |  |  |  |  | 
CCCC(=O)OCOC(=O)c1cccc2c1OB(O)[C@@H](NC(=O)CSC)C2 [Compound 25, (R)-butyryloxymethyl 2-hydroxy-3-(2-(methylthio)acetamido)-3,4-dihydro-2H-benzo[e][1,2]oxaborinine-8-carboxylate] | 27.3 | NDT | NDT | 31.2 | 1.94 | NDT |  |  |  |  |  |  |  |  |  |  |  |  | 
Nc1nnc(SCC(=O)N[C@H]2Cc3cccc(C(=O)O)c3OB2O)s1 [Compound 5, (R)-3-(2-(5-amino-1,3,4-thiadiazol-2-ylthio)acetamido)-2-hydroxy-3,4-dihydro-2H-benzo[e][1,2]oxaborinine-8-carboxylic acid] |  |  |  |  |  |  | Y (MIC of 1 μg/mL to 10 μg/mL) | X (key: X: MIC of less than 1 μg/mL; Y: MIC of 1 μg/mL to 10 μg/mL; Z: MIC of greater than 10 μg/mL) | Y (MIC of 1 μg/mL to 10 μg/mL) | X (MIC of less than 1 μg/mL) | Y (MIC of 1 μg/mL to 10 μg/mL) | X (MIC of less than 1 μg/mL) | X (MIC of less than 1 μg/mL) | Y (MIC of 1 μg/mL to 10 μg/mL) | X (key: X: MIC of less than 1 μg/mL; Y: MIC of 1 μg/mL to 10 μg/mL; Z: MIC of greater than 10 μg/mL) | 28.5 |  |  | 
O=C(CSc1nncs1)N[C@H]1Cc2cccc(C(=O)O)c2OB1O [Compound 7, (R)-3-(2-(1,3,4-thiadiazol-2-ylthio)acetamido)-2-hydroxy-3,4-dihydro-2H-benzo[e][1,2]oxaborinine-8-carboxylic acid] |  |  |  |  |  |  | Y (MIC of 1 μg/mL to 10 μg/mL) | X (key: X: MIC of less than 1 μg/mL; Y: MIC of 1 μg/mL to 10 μg/mL; Z: MIC of greater than 10 μg/mL) | Y (MIC of 1 μg/mL to 10 μg/mL) | Y (MIC of 1 μg/mL to 10 μg/mL) | Y (MIC of 1 μg/mL to 10 μg/mL) | X (MIC of less than 1 μg/mL) | X (MIC of less than 1 μg/mL) | X (MIC of less than 1 μg/mL) | X (key: X: MIC of less than 1 μg/mL; Y: MIC of 1 μg/mL to 10 μg/mL; Z: MIC of greater than 10 μg/mL) | 60.7 | < 1 |  | 
O=C(CSC(F)(F)F)N[C@H]1Cc2cccc(C(=O)O)c2OB1O [Compound 1, (R)-2-hydroxy-3-(2-(trifluoromethylthio)acetamido)-3,4-dihydro-2H-benzo[e][1,2]oxaborinine-8-carboxylic acid] |  |  |  |  |  |  | Y (MIC of 1 μg/mL to 10 μg/mL) |  | Y (MIC of 1 μg/mL to 10 μg/mL) | X (MIC of less than 1 μg/mL) | Y (MIC of 1 μg/mL to 10 μg/mL) | X (MIC of less than 1 μg/mL) | X (MIC of less than 1 μg/mL) | X (MIC of less than 1 μg/mL) |  |  | < 1 | Y (MIC of 1 μg/mL to 10 μg/mL) | Y (MIC of 1 μg/mL to 10 μg/mL)
NC(=O)N[C@H]1Cc2cccc(C(=O)O)c2OB1O [Compound 6, (R)-2-hydroxy-3-ureido-3,4-dihydro-2H-benzo[e][1,2]oxaborinine-8-carboxylic acid] |  |  |  |  |  |  | Z (MIC of greater than 10 μg/mL) | Y (key: X: MIC of less than 1 μg/mL; Y: MIC of 1 μg/mL to 10 μg/mL; Z: MIC of greater than 10 μg/mL) | X (MIC of less than 1 μg/mL) | Y (MIC of 1 μg/mL to 10 μg/mL) | Y (MIC of 1 μg/mL to 10 μg/mL) | X (MIC of less than 1 μg/mL) | Y (MIC of 1 μg/mL to 10 μg/mL) | Z (MIC of greater than 10 μg/mL) | Z (key: X: MIC of less than 1 μg/mL; Y: MIC of 1 μg/mL to 10 μg/mL; Z: MIC of greater than 10 μg/mL) |  | 1 to 10 |  | 
